Measured values from patent publication US10071086B2, “1H-pyrazolo[3,4-b]pyridines and therapeutic uses thereof” (Samumed, LLC, priority 2012, dated 2018).

Tested on: Wnt pathway
Assay: Wnt activity reporter assay (SP5 promoter-luciferase in SW480 cells)
Format: cell-based
Details: Homo sapiens, SP5 promoter firefly luciferase reporter, read-out: Wnt inhibition
Excerpt: The above synthesized compounds were screened using the assay procedure for Wnt activity described below.
Reporter cell lines can be generated by stably transducing cells of cancer cell lines (e.g., colon cancer) with a lentiviral construct that include a wnt-responsive promoter driving expression of the firefly luciferase gene.
Lentiviral constructs can be made in which the SP5 promoter, a promoter having eight TCF/LEF binding sites derived from the SP5 promoter, is linked upstream of the firefly luciferase gene. The lentiviral constructs can also include a hygromycin resistance gene as a selectable marker. The SP5 promoter construct can be used to transduce SW480 cells, a colon cancer cell line having a mutated APC gene that generates a truncated APC protein, leading to de-regulated accumulation of β-catenin.
Cultured SW480 cells bearing a reporter construct can be distributed at approximately 10,000 cells per well into 96 well or 384 well plates. Compounds from a small molecule compound library can then be added to the wells in half-log dilutions using a ten micromolar top concentration. A series of control wells for each cell type receive only buffer and compound solvent. Twenty-four to forty hours after the addition of compound, reporter activity for luciferase can be assayed, for example, by addition of the BrightGlo luminescence reagent (Promega) and the Victor3 plate reader (Perkin Elmer). Readings can be normalized to DMSO only treated cells, and normalized activities can then be used in the IC50 calculations.

Row | Compound | IC50 [nM]
1 | O=C(Cc1ccccc1)Nc1cncc(-c2cnc3[nH]nc(-c4nc5c(-c6ccccc6F)cccc5[nH]4)c3c2)c1 [Compound 595, N-(5-(3-(4-(2-Fluorophenyl)-1H-benzo[d]imidazol-2-yl)-1H-pyrazolo[3,4-b]pyridin-5-yl)pyridin-3-yl)-2-phenylacetamide] | 354
2 | O=C(Nc1cncc(-c2cnc3[nH]nc(-c4nc5c(-c6cccc(F)c6)cccc5[nH]4)c3c2)c1)C1CCCC1 [Compound 560, N-(5-(3-(4-(3-Fluorophenyl)-1H-benzo[d]imidazol-2-yl)-1H-pyrazolo[3,4-b]pyridin-5-yl)pyridin-3-yl)cyclopentanecarboxamide] | 90
3 | Fc1cncc(-c2cncc3[nH]c(-c4n[nH]c5ncc(-c6cccnc6)cc45)nc23)c1 [Compound 23, 3-(7-(5-Fluoropyridin-3-yl)-3H-imidazo[4,5-c]pyridin-2-yl)-5-(pyridin-3-yl)-1H-pyrazolo[3,4-b]pyridine] | 10000
4 | c1cc(N2CCCCC2)c2nc(-c3n[nH]c4ncc(-c5cncc(CNCC6CCCC6)c5)cc34)[nH]c2c1 [Compound 704, 1-Cyclopentyl-N-((5-(3-(4-(piperidin-1-yl)-1H-benzo[d]imidazol-2-yl)-1H-pyrazolo[3,4-b]pyridin-5-yl)pyridin-3-yl)methyl)methanamine] | 810
5 | O=C(Nc1cncc(-c2cnc3[nH]nc(-c4nc5c(-c6ccc(F)cc6)cccc5[nH]4)c3c2)c1)C1CC1 [Compound 581, N-(5-(3-(4-(4-Fluorophenyl)-1H-benzo[d]imidazol-2-yl)-1H-pyrazolo[3,4-b]pyridin-5-yl)pyridin-3-yl)cyclopropanecarboxamide] | 48
6 | c1cncc(-c2cnc3[nH]nc(-c4nc5c(-c6cccs6)cccc5[nH]4)c3c2)c1 [Compound 888, 5-(Pyridin-3-yl)-3-(4-(thiophen-2-yl)-1H-benzo[d]imidazol-2-yl)-1H-pyrazolo[3,4-b]pyridine] | 12
7 | c1csc(-c2cccc3[nH]c(-c4n[nH]c5ncc(-c6cncc(CN7CCCC7)c6)cc45)nc23)c1 [Compound 898, 5-(5-(Pyrrolidin-1-ylmethyl)pyridin-3-yl)-3-(4-(thiophen-2-yl)-1H-benzo[d]imidazol-2-yl)-1H-pyrazolo[3,4-b]pyridine] | 120
8 | CCNC(=O)c1cncc2[nH]c(-c3n[nH]c4ncc(-c5cccnc5)cc34)nc12 [Compound 8, N-Ethyl-2-(5-(pyridin-3-yl)-1H-pyrazolo[3,4-b]pyridin-3-yl)-3H-imidazo[4,5-c]pyridine-7-carboxamide] | 8250
9 | Cc1ccncc1-c1cnc2[nH]nc(-c3nc4c(-c5ccncc5)cncc4[nH]3)c2c1 [Compound 192, 5-(4-Methylpyridin-3-yl)-3-(7-(pyridin-4-yl)-3H-imidazo[4,5-c]pyridin-2-yl)-1H-pyrazolo[3,4-b]pyridine] | 1050
10 | CC(C)Nc1cncc(-c2cnc3[nH]nc(-c4nc5c(-c6ccncc6)cncc5[nH]4)c3c2)c1 [Compound 198, N-Isopropyl-5-(3-(7-(pyridin-4-yl)-3H-imidazo[4,5-c]pyridin-2-yl)-1H-pyrazolo[3,4-b]pyridin-5-yl)pyridin-3-amine] | 1130
11 | CC(C)(C)C(=O)Nc1cncc(-c2cnc3[nH]nc(-c4nc5c(-c6ccoc6)cccc5[nH]4)c3c2)c1 [Compound 818, N-(5-(3-(4-(Furan-3-yl)-1H-benzo[d]imidazol-2-yl)-1H-pyrazolo[3,4-b]pyridin-5-yl)pyridin-3-yl)pivalamide] | 50
12 | CCCC(=O)Nc1cncc(-c2cnc3[nH]nc(-c4nc5c(-c6ccccc6F)cccc5[nH]4)c3c2)c1 [Compound 602, N-(5-(3-(4-(2-Fluorophenyl)-1H-benzo[d]imidazol-2-yl)-1H-pyrazolo[3,4-b]pyridin-5-yl)pyridin-3-yl)butyramide] | 18
13 | O=C(Nc1cncc(-c2cnc3[nH]nc(-c4nc5c(-c6cccs6)cncc5[nH]4)c3c2)c1)C1CC1 [Compound 458, N-(5-(3-(7-(Thiophen-2-yl)-3H-imidazo[4,5-c]pyridin-2-yl)-1H-pyrazolo[3,4-b]pyridin-5-yl)pyridin-3-yl)cyclopropanecarboxamide] | 22
14 | CN(C)Cc1cncc(-c2cnc3[nH]nc(-c4nc5c(-c6cccc(F)c6)cccc5[nH]4)c3c2)c1 [Compound 552, 1-(5-(3-(4-(3-Fluorophenyl)-1H-benzo[d]imidazol-2-yl)-1H-pyrazolo[3,4-b]pyridin-5-yl)pyridin-3-yl)-N,N-dimethylmethanamine] | 22
15 | Cc1ccncc1-c1cnc2[nH]nc(-c3nc4c(-c5ccncc5)cccc4[nH]3)c2c1 [Compound 637, 5-(4-Methylpyridin-3-yl)-3-(4-(pyridin-4-yl)-1H-benzo[d]imidazol-2-yl)-1H-pyrazolo[3,4-b]pyridine] | 110
16 | CC(C)Nc1cncc(-c2cnc3[nH]nc(-c4nc5ccncc5[nH]4)c3c2)c1 [Compound 325, 5-(3-(3H-Imidazo[4,5-c]pyridin-2-yl)-1H-pyrazolo[3,4-b]pyridin-5-yl)-N-isopropylpyridin-3-amine] | 58
17 | CCNCc1cncc(-c2cnc3[nH]nc(-c4nc5c(N6CCCCC6)cncc5[nH]4)c3c2)c1 [Compound 241, N-((5-(3-(7-(Piperidin-1-yl)-3H-imidazo[4,5-c]pyridin-2-yl)-1H-pyrazolo[3,4-b]pyridin-5-yl)pyridin-3-yl)methyl)ethanamine] | 190
18 | CC(C)(C)CC(=O)Nc1cncc(-c2cnc3[nH]nc(-c4nc5ccccc5[nH]4)c3c2)c1 [Compound 774, N-(5-(3-(1H-Benzo[d]imidazol-2-yl)-1H-pyrazolo[3,4-b]pyridin-5-yl)pyridin-3-yl)-3,3-dimethylbutanamide] | 200
19 | CN1CCN(c2cccc3[nH]c(-c4n[nH]c5ncc(-c6cncc(CN7CCC(F)(F)C7)c6)cc45)nc23)CC1 [Compound 758, 5-(5-((3,3-Difluoropyrrolidin-1-yl)methyl)pyridin-3-yl)-3-(4-(4-methylpiperazin-1-yl)-1H-benzo[d]imidazol-2-yl)-1H-pyrazolo[3,4-b]pyridine] | 48
20 | CCCC(=O)Nc1cncc(-c2cnc3[nH]nc(-c4nc5c(-c6ccoc6)cncc5[nH]4)c3c2)c1 [Compound 382, N-(5-(3-(7-(Furan-3-yl)-3H-imidazo[4,5-c]pyridin-2-yl)-1H-pyrazolo[3,4-b]pyridin-5-yl)pyridin-3-yl)butyramide] | 3
21 | CN(C)Cc1cncc(-c2cnc3[nH]nc(-c4nc5c(-c6cccnc6)cccc5[nH]4)c3c2)c1 [Compound 621, N,N-Dimethyl-1-(5-(3-(4-(pyridin-3-yl)-1H-benzo[d]imidazol-2-yl)-1H-pyrazolo[3,4-b]pyridin-5-yl)pyridin-3-yl)methanamine] | 36
22 | CC(C)(C)C(=O)Nc1cncc(-c2cnc3[nH]nc(-c4nc5c(-c6ccoc6)cncc5[nH]4)c3c2)c1 [Compound 373, N-(5-(3-(7-(Furan-3-yl)-3H-imidazo[4,5-c]pyridin-2-yl)-1H-pyrazolo[3,4-b]pyridin-5-yl)pyridin-3-yl)pivalamide] | 70
23 | CCC(=O)Nc1cncc(-c2cnc3[nH]nc(-c4nc5c(-c6ccsc6)cccc5[nH]4)c3c2)c1 [Compound 785, N-(5-(3-(4-(Thiophen-3-yl)-1H-benzo[d]imidazol-2-yl)-1H-pyrazolo[3,4-b]pyridin-5-yl)pyridin-3-yl)propionamide] | 10
24 | CN(C)Cc1cncc(-c2cnc3[nH]nc(-c4nc5c(-c6cncc(C(F)(F)F)c6)cncc5[nH]4)c3c2)c1 [Compound 25, N,N-Dimethyl-1-(5-(3-(7-(5-(trifluoromethyl)pyridin-3-yl)-3H-imidazo[4,5-c]pyridin-2-yl)-1H-pyrazolo[3,4-b]pyridin-5-yl)pyridin-3-yl)methanamine] | 10000
25 | O=C(Nc1cncc(-c2cnc3[nH]nc(-c4nc5c(-c6ccsc6)cccc5[nH]4)c3c2)c1)C1CC1 [Compound 803, N-(5-(3-(4-(Thiophen-3-yl)-1H-benzo[d]imidazol-2-yl)-1H-pyrazolo[3,4-b]pyridin-5-yl)pyridin-3-yl)cyclopropanecarboxamide] | 17
26 | CN(C)Cc1cncc(-c2cnc3[nH]nc(-c4nc5c(-c6cccnc6)cncc5[nH]4)c3c2)c1 [Compound 176, N,N-Dimethyl-1-(5-(3-(7-(pyridin-3-yl)-3H-imidazo[4,5-c]pyridin-2-yl)-1H-pyrazolo[3,4-b]pyridin-5-yl)pyridin-3-yl)methanamine] | 1550
27 | CN(C)Cc1cncc(-c2cnc3[nH]nc(-c4nc5c(-c6ccsc6)cccc5[nH]4)c3c2)c1 [Compound 797, N,N-Dimethyl-1-(5-(3-(4-(thiophen-3-yl)-1H-benzo[d]imidazol-2-yl)-1H-pyrazolo[3,4-b]pyridin-5-yl)pyridin-3-yl)methanamine] | 32
28 | Nc1cncc(-c2cnc3[nH]nc(-c4nc5ccccc5[nH]4)c3c2)c1 [Compound 761, 5-(3-(1H-Benzo[d]imidazol-2-yl)-1H-pyrazolo[3,4-b]pyridin-5-yl)pyridin-3-amine] | 320
29 | Nc1cncc(-c2cnc3[nH]nc(-c4nc5c(N6CCCCC6)cncc5[nH]4)c3c2)c1 [Compound 238, 5-(3-(7-(Piperidin-1-yl)-3H-imidazo[4,5-c]pyridin-2-yl)-1H-pyrazolo[3,4-b]pyridin-5-yl)pyridin-3-amine] | 350
30 | c1ccc(CNCc2cncc(-c3cnc4[nH]nc(-c5nc6c(-c7ccncc7)cncc6[nH]5)c4c3)c2)cc1 [Compound 209, N-Benzyl-1-(5-(3-(7-(pyridin-4-yl)-3H-imidazo[4,5-c]pyridin-2-yl)-1H-pyrazolo[3,4-b]pyridin-5-yl)pyridin-3-yl)methanamine] | 9800
